Here are results for 20 compounds from patent US11919902B2, “Aryl-bipyridine amine derivatives as phosphatidylinositol phosphate kinase inhibitors” (HiberCell, Inc., priority 2017, dated 2024).

The structures appear in SMILES notation.

Assay [1] concerns the target T1, PIP4K2A (full length protein, SignalChem) (Homo sapiens, UniProt P48426).
T1 construct: 4 nM PIP4K2A (full length protein, SignalChem); purchased SignalChem
T1 sequence (P48426 1-406): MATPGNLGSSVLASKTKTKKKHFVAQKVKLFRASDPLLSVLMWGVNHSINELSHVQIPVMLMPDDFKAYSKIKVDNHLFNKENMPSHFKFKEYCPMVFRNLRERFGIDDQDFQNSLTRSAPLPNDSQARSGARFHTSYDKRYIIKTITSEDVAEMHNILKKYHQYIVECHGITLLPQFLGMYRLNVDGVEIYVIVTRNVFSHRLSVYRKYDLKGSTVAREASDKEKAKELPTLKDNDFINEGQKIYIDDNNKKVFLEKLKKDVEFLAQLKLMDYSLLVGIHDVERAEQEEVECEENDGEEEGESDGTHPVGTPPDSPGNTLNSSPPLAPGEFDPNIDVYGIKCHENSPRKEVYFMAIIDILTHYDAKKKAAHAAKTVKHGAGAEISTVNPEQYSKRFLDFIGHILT
The experiment in a line: Kinase Assay PIP4K2 A (Sprint); ADP-Glo biochemical assay. Particulars: Table 2; compounds listed under IC50 range headings. The method in brief: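 Compounds (10-point, 3-fold dilutions) were pre-incubated 15 min at RT with an enzyme/substrate mix of 4 nM full-length PIP4K2A and 100 μM PI(5)P diC8 in 20 mM MOPS pH 7.2, 25 mM MgCl2, 0.005% Tween 20. A 60 μM ATP solution was added, reaction 1 h RT; ADP read by ADP-Glo luminescence, IC50 fitted from % inhibition vs DMSO.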
On the technique in general: In ADP-Glo the light output rises with the ADP produced.

The next assay deals with T2, GST tagged PIP4KtypeIIB (Homo sapiens, UniProt P78356).
T2 construct: made in house; host or cells: E. coli
T2 sequence (P78356 1-416): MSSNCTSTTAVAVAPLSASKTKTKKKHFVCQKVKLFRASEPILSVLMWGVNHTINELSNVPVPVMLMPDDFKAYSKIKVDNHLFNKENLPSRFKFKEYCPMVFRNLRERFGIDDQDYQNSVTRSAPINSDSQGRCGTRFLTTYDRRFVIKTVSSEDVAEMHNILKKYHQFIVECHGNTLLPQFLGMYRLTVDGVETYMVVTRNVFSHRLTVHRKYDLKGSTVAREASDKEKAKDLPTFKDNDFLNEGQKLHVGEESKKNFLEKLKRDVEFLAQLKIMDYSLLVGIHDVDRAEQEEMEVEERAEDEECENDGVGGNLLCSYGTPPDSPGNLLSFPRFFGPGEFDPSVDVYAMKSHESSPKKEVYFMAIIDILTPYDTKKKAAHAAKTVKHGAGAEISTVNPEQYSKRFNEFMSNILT
The experiment in a line: Trans-FI P kinase assay PIP4K2B (PIP4KtypeIIB inhibition assay). It counts as biochemical. Particulars: Table 4; compounds listed under IC50 range headings; 100 uM GTP, 5 nM PIP4KIIB; read-out: Trans-FI P kinase assays: PIP4K2B IC50. The method, boiled down: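 Purified GST-PIP4KIIB (5 nM final), 1 h preincubation with compound at 27 C, then 2 h reaction with 100 uM GTP and 80 uM PI5P plus DOPE carrier lipid in pH 7.3 HEPES/MgCl2/Triton buffer with 5% DMSO. GDP read by Transcreener FI fluorescence against a calibration curve; IC50 from % no-inhibitor activity vs log concentration.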

Another assay addresses T3, GST tagged PIP4KtypeIIA (Homo sapiens, UniProt P48426).
T3 construct: made in house; host or cells: E. coli
T3 sequence (P48426 1-406): T1 sequence (P48426 1-406)
The assay is described as follows: ADP-glo kinase assay PIP4K 2A (PIP4KtypeIIA inhibition assay). Conditions: Table 3; compounds listed under IC50 range headings; 10 uM ATP, 0.5 nM PIP4KIIA. It counts as biochemical. The method in brief: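 E. coli-expressed GST-PIP4KtypeIIA (0.5 nM final) was preincubated 1 h at 27 °C with compound (up to 4.8 μM, 5% DMSO) in PI5P/DOPE lipid in 50 mM HEPES pH 7.3 with 10 mM MgCl2. The reaction was started with 10 μM ATP (final) and run 1 h. ADP was read by ADP-Glo luminescence via a calibration curve, and IC50 was taken from % residual activity.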

Take `CNC(=O)c1cnc2[nH]cc(-c3cncc(-c4ccc(N5CCCC5=O)cc4)c3)c2c1` [Example 71, N-methyl-3-(5-(4-(2-oxopyrrolidin-1-yl)phenyl)pyridin-3-yl)-1H-pyrrolo[2,3-b]pyridine-5-carboxamide]: the values for the IC50 (in assay [1]; on GST tagged PIP4KtypeIIB; on GST tagged PIP4KtypeIIA) were 5 to 100 nM, 10 to 100 nM and 100 to 1000 nM, respectively.

With `CN(C)C(=O)c1cnc2[nH]cc(-c3cncc(-c4ccc(N5CCCC5=O)cc4)c3)c2c1` [Example 72, N,N-dimethyl-3-(5-(4-(2-oxopyrrolidin-1-yl)phenyl)pyridin-3-yl)-1H-pyrrolo[2,3-b]pyridine-5-carboxamide], the IC50 in assay [1] was 5 to 100 nM; on GST tagged PIP4KtypeIIB, 100 to 1000 nM; on GST tagged PIP4KtypeIIA, 100 to 1000 nM.

`O=C1CCCN1c1ccc(-c2cncc(-c3c[nH]c(=O)c4[nH]ncc34)c2)cc1` [Example 74, 4-(5-(4-(2-oxopyrrolidin-1-yl)phenyl)pyridin-3-yl)-1,6-dihydro-7H-pyrazolo[3,4-c]pyridin-7-one]: the concentration for half-maximal inhibition (IC50) in assay [1] was 5 to 100 nM; on GST tagged PIP4KtypeIIB it was 100 to 1000 nM; against GST tagged PIP4KtypeIIA, 100 to 1000 nM.

As for `CN1C(=O)Cc2c(-c3cncc(-c4ccc(N5CCCC5=O)cc4)c3)ccnc21` [Example 76, 1-methyl-4-(5-(4-(2-oxopyrrolidin-1-yl)phenyl)pyridin-3-yl)-1,3-dihydro-2H-pyrrolo[2,3-b]pyridin-2-one], the IC50 is 100 to 1000 nM in assay [1], 1000 to 2500 nM at GST tagged PIP4KtypeIIB and 2500 to 5000 nM on GST tagged PIP4KtypeIIA.

For `Cn1cc(-c2cncc(-c3ccc(N4CCCC4=O)cc3)c2)c2cc(N3CCCC3=O)cnc21` [Example 77, 1-(1-methyl-3-(5-(4-(2-oxopyrrolidin-1-yl)phenyl)pyridin-3-yl)-1H-pyrrolo[2,3-b]pyridin-5-yl)pyrrolidin-2-one], the IC50 in assay [1] was 5 to 100 nM; at GST tagged PIP4KtypeIIB it was 100 to 1000 nM; at GST tagged PIP4KtypeIIA it was 100 to 1000 nM.

As for `O=C1NCc2c(-c3cncc(-c4ccc(N5CCCC5=O)cc4)c3)ccnc21` [Example 78, 4-[5-[4-(2-Oxopyrrolidin-1-yl)phenyl]-3-pyridyl]-5,6-dihydropyrrolo[3,4-b]pyridin-7-one], the IC50 in assay [1] was in the range of 5 to 100 nM; on GST tagged PIP4KtypeIIB it was 100 to 1000 nM; against GST tagged PIP4KtypeIIA, 100 to 1000 nM.

In the case of `O=C(NCC1CC1)c1cc2c(-c3cncc(-c4ccc(N5CCCC5=O)cc4)c3)ccnc2o1` [Example 79, N-(cyclopropylmethyl)-4-(5-(4-(2-oxopyrrolidin-1-yl)phenyl)pyridin-3-yl)furo[2,3-b]pyridine-2-carboxamide], the figures for the IC50 (in assay [1]; at GST tagged PIP4KtypeIIB; against GST tagged PIP4KtypeIIA) were 5 to 100 nM, 10 to 100 nM and 10 to 100 nM, respectively.

With `COCCNC(=O)c1cc2c(-c3cncc(-c4ccc(N5CCCC5=O)cc4)c3)ccnc2o1` [Example 80, N-(2-methoxyethyl)-4-(5-(4-(2-oxopyrrolidin-1-yl)phenyl)pyridin-3-yl)furo[2,3-b]pyridine-2-carboxamide], the figures for the IC50 (in assay [1]; on GST tagged PIP4KtypeIIB; at GST tagged PIP4KtypeIIA) were 5 to 100 nM, 10 to 100 nM and 100 to 1000 nM, respectively.

Consider `Nc1ncc(-c2ccncc2)cc1-c1ccc(N2CCCC2=O)cc1` [Example 84, 1-(4-(6-amino-[3,4′-bipyridin]-5-yl)phenyl)pyrrolidin-2-one], for which the IC50 (in assay [1]; on GST tagged PIP4KtypeIIB; against GST tagged PIP4KtypeIIA) was 100 to 1000 nM each time.

On to `CNC(=O)c1cc2c(-c3cnc(N)c(-c4ccc(N5CCCC5=O)cc4)c3)ccnc2o1` [Example 85, 4-(6-amino-5-(4-(2-oxopyrrolidin-1-yl)phenyl)pyridin-3-yl)-N-methylfuro[2,3-b]pyridine-2-carboxamide], for which the IC50 in assay [1] was in the range of 1 to 5 nM; at GST tagged PIP4KtypeIIB, 1 to 10 nM; on GST tagged PIP4KtypeIIA, 10 to 100 nM.

Regarding `Cn1cc(-c2cnc(N)c(-c3ccc(N4CCCC4=O)cc3)c2)c2cccnc21` [Example 87, 1-(4-(2-amino-5-(1-methyl-1H-pyrrolo[2,3-b]pyridin-3-yl)pyridin-3-yl)phenyl)pyrrolidin-2-one], the IC50 in assay [1] is 5 to 100 nM; on GST tagged PIP4KtypeIIB, 100 to 1000 nM; at GST tagged PIP4KtypeIIA, 100 to 1000 nM.

Regarding `Nc1ncc(-c2ccnc3c2cc2n3CCN(CC3CC3)C2=O)cc1-c1ccc(N2CCCC2=O)cc1` [Example 88, 4-(6-amino-5-(4-(2-oxopyrrolidin-1-yl)phenyl)pyridin-3-yl)-7-(cyclopropylmethyl)-8,9-dihydropyrido[3′,2′:4,5]pyrrolo[1,2-a]pyrazin-6(7H)-one], the figures for the IC50 (in assay [1]; on GST tagged PIP4KtypeIIB; on GST tagged PIP4KtypeIIA) were 5 to 100 nM, 1 to 10 nM and 10 to 100 nM, respectively.

For `Nc1ncc(-c2ccnc3oc(C(=O)NCC4CC4)cc23)cc1-c1ccc(N2CCCC2=O)cc1` [Example 89, 4-(6-amino-5-(4-(2-oxopyrrolidin-1-yl)phenyl)pyridin-3-yl)-N-(cyclopropylmethyl)furo[2,3-b]pyridine-2-carboxamide], the IC50 was 1 to 5 nM in assay [1], 1 to 10 nM on GST tagged PIP4KtypeIIB and 1 to 10 nM against GST tagged PIP4KtypeIIA.

For `COCCNC(=O)c1cc2c(-c3cnc(N)c(-c4ccc(N5CCCC5=O)cc4)c3)ccnc2o1` [Example 90, 4-(6-amino-5-(4-(2-oxopyrrolidin-1-yl)phenyl)pyridin-3-yl)-N-(2-methoxyethyl)furo[2,3-b]pyridine-2-carboxamide], the IC50 in assay [1] is 5 to 100 nM; on GST tagged PIP4KtypeIIB, 1 to 10 nM; against GST tagged PIP4KtypeIIA it was 10 to 100 nM.

In the case of `Cn1cc(-c2cnc(N)c(-c3ccc(N4CCCC4=O)cc3)c2)c2cc(N3CCCC3=O)cnc21` [Example 91, 1-(4-(2-amino-5-(1-methyl-5-(2-oxopyrrolidin-1-yl)-1H-pyrrolo[2,3-b]pyridin-3-yl)pyridin-3-yl)phenyl)pyrrolidin-2-one], the IC50 in assay [1] is 5 to 100 nM; on GST tagged PIP4KtypeIIB, 10 to 100 nM; on GST tagged PIP4KtypeIIA it was 100 to 1000 nM.

As for `Cn1ncc2c(-c3cnc(N)c(-c4ccc(N5CCCC5=O)cc4)c3)cn(CC3CCOCC3)c(=O)c21` [Example 92, 4-(6-amino-5-(4-(2-oxopyrrolidin-1-yl)phenyl)pyridin-3-yl)-1-methyl-6-((tetrahydro-2H-pyran-4-yl)methyl)-1,6-dihydro-7H-pyrazolo[3,4-c]pyridin-7-one], the IC50 in assay [1] lay in the range of 5 to 100 nM; on GST tagged PIP4KtypeIIB it was 10 to 100 nM; against GST tagged PIP4KtypeIIA it was 10 to 100 nM.

Take `CN(C)C(=O)c1ccc(-c2cc(-c3ccnc4cc(C#N)ccc34)cnc2N)nc1` [Example 109, 2′-amino-5′-(7-cyanoquinolin-4-yl)-N,N-dimethyl-[2,3′-bipyridine]-5-carboxamide]: the results for the IC50 (in assay [1]; on GST tagged PIP4KtypeIIB; at GST tagged PIP4KtypeIIA) were 1000 to 2500 nM, 1000 to 2500 nM and 2500 to 5000 nM, respectively.

With `CN(C)C(=O)c1ccc(-c2cc(-c3ccnc4cc(N(C)C)ccc34)cnc2N)nc1` [Example 110, 2′-amino-5′-(7-(dimethylamino)quinolin-4-yl)-N,N-dimethyl-[2,3′-bipyridine]-5-carboxamide], the half-maximal inhibitory concentration (IC50) (in assay [1]; on GST tagged PIP4KtypeIIB; on GST tagged PIP4KtypeIIA) was 100 to 1000 nM throughout.

`CN(C)C(=O)c1ccc(-c2cc(-c3ccnc4ncccc34)cnc2N)nc1` [Example 111, 2′-amino-N,N-dimethyl-5′-(1,8-naphthyridin-4-yl)-[2,3′-bipyridine]-5-carboxamide]: the IC50 (in assay [1]; on GST tagged PIP4KtypeIIB; at GST tagged PIP4KtypeIIA) was 100 to 1000 nM in each case.

Consider `CN(C)C(=O)c1ccc(-c2cc(-c3ccnc4[nH]c(=O)[nH]c34)cnc2N)nc1` [Example 113, 2′-amino-N,N-dimethyl-5′-(2-oxo-2,3-dihydro-1H-imidazo[4,5-b]pyridin-7-yl)-[2,3′-bipyridine]-5-carboxamide], for which the IC50 in assay [1] is 5 to 100 nM; on GST tagged PIP4KtypeIIB, 100 to 1000 nM; against GST tagged PIP4KtypeIIA, 100 to 1000 nM.

One may read the IC50 as the point on the concentration scale where inhibition reaches its midpoint.
